Format in all cases: functional, cell-based
One assay concerns Jurkat. The experiment in a line: Cytotoxicity against human Jurkat cells after 48 hrs.
The next assay has as its system B16-F10. The experiment in a line: Cytotoxicity against mouse B16F10 cells after 48 hrs. The conditions noted are these: B16-F10, 48 h.
A further assay has as its system HT-29. The experiment in a line: Cytotoxicity against human HT29 cells after 48 hrs. Conditions: HT-29, 48 h.

Experimental findings from ChEMBL document CHEMBL1148208, “Aureoverticillactam, a novel 22-atom macrocyclic lactam from the marine actinomycete Streptomyces aureoverticillatus” (J Nat Prod, 2004) are described below.

Usually EC50 stands for the concentration giving half of the maximal effect. A higher EC50 goes with a need for much substance.

Regarding `CCC/C=C/CC1C/C=C/C=C(C)/C=C/C=C\C(O)CC(O)C(O)/C=C/C=C/C=C/C(=O)N1` (stereo not drawn) [AUREOVERTICILLACTAM], the values for the EC50 in the assay on Jurkat, in the assay with B16-F10 and in the assay with HT-29 were 2300 nM, 2200 nM and 3600 nM, respectively.
